# Measured values from ChEMBL document CHEMBL4385595, “Advancement of multi-target drug discoveries and promising applications in the field of Alzheimer's disease” (Eur J Med Chem, 2019).
# Key:
# SK-N-SH = assay: Inhibition of apoptosis in human SK-N-SH cells assessed as […] in cleaved caspase-3 by Western blot analysis; type: functional, cell-based
# [1] = biological target: Glutamate [NMDA] receptor; assay: Inhibition of NMDA receptor (unknown origin); type: protein-complex assay, Homo sapiens
# Acetylcholinesterase = Acetylcholinesterase (Homo sapiens, UniProt P22303); assay: Inhibition of human AChE
# Cholinesterase [2] = biological target: T1, Cholinesterase (Homo sapiens, UniProt P06276); assay: Inhibition of human BuChE
# [3] = biological target: Microtubule-associated protein tau (Homo sapiens) (UniProt P10636); assay: Inhibition of tau aggregation (unknown origin) at 20 uM
# [4] = biological target: Amyloid-beta precursor protein (Homo sapiens) (UniProt P05067); assay: Inhibition of self-induced amyloid beta (1 to 42) (unknown origin) aggregation at 20 uM
# Mus musculus = assay: In-vivo inhibition of NMDA receptor in mouse assessed as reduction in NMDA-induced convulsions administered intraperitoneally 40 mins before NMDA injection; type: functional, organism-based
# [5] = Inhibition of calcium channel in rat ileum intestine assessed as reduction in Ca-induced contraction; type: tissue-based
# Cholinesterase [6] = biological target: T1, Cholinesterase; assay: Inhibition of BuChE (unknown origin) assessed as decrease in thiocholine accumulation by spectrophotometry
# Cholinesterase [7] = biological target: T1, Cholinesterase; assay: Inhibition of BChE (unknown origin)
# [8] = biological target: Glycogen synthase kinase-3 beta (Homo sapiens, UniProt P49841); assay: Inhibition of human recombinant GSK-3beta using 19F peptide as substrate measured after 1.5 hrs by fluorescence method
# Beta-secretase 1 = Beta-secretase 1 (Homo sapiens, UniProt P56817); assay: Inhibition of human recombinant BACE-1 using 19F peptide as substrate measured after 5 hrs by fluorescence method
# Sequence of Beta-secretase 1 (P56817 whole entry): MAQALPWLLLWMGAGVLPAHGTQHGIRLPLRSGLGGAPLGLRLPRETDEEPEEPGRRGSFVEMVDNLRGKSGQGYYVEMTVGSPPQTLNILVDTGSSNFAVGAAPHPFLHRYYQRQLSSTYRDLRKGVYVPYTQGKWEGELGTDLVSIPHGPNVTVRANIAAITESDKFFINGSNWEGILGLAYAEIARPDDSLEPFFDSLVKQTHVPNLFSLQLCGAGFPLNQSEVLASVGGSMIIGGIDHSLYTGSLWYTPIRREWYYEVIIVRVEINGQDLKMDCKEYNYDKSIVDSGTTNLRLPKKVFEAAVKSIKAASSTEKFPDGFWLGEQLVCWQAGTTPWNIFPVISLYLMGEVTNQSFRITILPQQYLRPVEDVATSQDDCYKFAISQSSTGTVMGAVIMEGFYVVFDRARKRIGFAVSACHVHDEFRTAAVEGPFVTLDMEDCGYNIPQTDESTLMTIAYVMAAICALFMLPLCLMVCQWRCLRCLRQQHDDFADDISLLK
# T1 sequence (P06276 whole entry): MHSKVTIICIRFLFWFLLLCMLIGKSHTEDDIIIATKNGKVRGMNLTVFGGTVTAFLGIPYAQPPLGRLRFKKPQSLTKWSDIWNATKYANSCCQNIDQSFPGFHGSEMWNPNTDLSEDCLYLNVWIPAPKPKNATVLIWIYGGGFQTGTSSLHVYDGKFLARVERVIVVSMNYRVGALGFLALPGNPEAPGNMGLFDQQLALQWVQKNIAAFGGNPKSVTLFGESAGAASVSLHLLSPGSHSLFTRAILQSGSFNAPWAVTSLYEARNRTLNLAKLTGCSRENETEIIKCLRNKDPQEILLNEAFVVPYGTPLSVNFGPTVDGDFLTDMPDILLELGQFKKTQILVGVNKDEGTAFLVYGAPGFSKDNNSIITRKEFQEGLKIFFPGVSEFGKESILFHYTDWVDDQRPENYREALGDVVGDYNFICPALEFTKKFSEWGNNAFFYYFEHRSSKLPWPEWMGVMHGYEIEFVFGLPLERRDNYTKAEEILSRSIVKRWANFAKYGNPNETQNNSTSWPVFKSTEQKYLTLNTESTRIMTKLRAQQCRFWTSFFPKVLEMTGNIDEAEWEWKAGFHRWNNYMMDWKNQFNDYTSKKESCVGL
# Sequence of Acetylcholinesterase (P22303 whole entry): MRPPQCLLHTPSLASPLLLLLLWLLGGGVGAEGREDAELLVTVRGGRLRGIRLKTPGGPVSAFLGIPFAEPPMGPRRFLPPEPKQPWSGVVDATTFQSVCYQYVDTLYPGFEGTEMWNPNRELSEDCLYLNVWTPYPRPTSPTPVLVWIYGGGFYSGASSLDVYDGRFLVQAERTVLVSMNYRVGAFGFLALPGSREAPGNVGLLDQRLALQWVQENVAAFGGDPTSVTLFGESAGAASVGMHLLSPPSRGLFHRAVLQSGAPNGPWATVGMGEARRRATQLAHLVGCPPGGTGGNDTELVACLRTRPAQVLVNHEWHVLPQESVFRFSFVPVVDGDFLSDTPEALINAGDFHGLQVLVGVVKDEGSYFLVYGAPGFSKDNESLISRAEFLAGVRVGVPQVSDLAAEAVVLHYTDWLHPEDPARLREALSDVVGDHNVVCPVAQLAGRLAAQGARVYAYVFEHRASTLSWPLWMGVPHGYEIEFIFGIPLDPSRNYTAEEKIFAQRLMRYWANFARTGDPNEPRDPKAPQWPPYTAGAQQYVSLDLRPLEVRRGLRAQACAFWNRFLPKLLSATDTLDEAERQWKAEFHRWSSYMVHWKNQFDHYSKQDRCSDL
# Sequence of Amyloid-beta precursor protein (Homo sapiens) (P05067 whole entry): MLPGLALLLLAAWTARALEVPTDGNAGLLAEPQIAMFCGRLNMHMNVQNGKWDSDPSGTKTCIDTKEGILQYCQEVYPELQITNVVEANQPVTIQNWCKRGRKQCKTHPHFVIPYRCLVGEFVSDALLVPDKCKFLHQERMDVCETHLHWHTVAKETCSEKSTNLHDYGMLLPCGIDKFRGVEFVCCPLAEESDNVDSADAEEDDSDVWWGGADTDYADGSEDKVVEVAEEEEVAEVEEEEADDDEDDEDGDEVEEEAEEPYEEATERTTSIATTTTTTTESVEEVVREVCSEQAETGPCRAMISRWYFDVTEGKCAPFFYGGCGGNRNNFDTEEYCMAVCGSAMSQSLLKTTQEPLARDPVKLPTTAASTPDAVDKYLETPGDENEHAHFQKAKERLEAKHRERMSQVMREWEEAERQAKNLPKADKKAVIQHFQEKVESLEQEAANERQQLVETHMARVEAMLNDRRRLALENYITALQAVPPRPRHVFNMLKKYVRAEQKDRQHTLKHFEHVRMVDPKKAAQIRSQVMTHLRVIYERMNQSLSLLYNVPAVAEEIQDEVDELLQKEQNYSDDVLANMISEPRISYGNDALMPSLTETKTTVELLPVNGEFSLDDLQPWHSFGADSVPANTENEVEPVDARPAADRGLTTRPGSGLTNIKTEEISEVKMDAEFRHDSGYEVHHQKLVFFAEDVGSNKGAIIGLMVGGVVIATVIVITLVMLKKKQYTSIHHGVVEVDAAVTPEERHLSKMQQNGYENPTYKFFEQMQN
# Sequence of Glycogen synthase kinase-3 beta (P49841 whole entry): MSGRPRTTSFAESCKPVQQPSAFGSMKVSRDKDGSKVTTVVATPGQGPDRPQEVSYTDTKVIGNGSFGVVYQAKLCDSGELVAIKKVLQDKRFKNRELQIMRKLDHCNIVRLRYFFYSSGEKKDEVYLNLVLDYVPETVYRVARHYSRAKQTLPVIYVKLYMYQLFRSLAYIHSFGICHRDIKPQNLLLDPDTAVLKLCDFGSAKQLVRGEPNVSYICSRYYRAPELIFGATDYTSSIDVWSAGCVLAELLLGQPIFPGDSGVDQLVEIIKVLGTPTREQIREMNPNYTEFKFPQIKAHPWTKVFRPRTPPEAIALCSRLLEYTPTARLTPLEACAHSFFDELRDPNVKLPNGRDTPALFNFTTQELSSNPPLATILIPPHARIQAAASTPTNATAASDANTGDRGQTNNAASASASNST
# Sequence of Microtubule-associated protein tau (Homo sapiens) (P10636 whole entry): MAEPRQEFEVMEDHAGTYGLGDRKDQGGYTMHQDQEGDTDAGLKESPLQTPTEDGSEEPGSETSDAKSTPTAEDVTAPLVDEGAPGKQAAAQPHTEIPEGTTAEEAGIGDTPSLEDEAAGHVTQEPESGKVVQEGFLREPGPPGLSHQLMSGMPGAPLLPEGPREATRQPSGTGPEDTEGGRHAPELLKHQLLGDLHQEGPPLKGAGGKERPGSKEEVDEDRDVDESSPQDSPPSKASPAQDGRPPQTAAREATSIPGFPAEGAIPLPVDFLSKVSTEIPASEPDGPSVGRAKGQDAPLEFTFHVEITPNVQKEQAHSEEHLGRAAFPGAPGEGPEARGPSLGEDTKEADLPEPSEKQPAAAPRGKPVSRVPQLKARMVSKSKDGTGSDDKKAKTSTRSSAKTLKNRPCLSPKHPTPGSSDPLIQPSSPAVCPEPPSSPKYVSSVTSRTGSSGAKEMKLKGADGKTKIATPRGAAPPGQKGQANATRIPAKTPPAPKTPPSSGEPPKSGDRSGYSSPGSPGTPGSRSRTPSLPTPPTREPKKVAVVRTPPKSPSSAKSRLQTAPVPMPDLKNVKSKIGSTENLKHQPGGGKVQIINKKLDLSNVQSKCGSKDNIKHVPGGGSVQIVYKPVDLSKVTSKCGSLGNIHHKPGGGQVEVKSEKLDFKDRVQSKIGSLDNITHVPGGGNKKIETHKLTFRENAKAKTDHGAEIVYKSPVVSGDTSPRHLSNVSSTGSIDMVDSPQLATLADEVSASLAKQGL
smiles,measurement,setting,value
C#CCN[C@@H]1CCc2ccc(OC(=O)N(C)CC)cc21 [LADOSTIGIL],IC50,SK-N-SH,1050 µM
Cc1ccc2[nH]c3c(c2c1)CN(CCCCCCN1CCc2[nH]c4ccc(C)cc4c2C1)CC3,IC50,[1],11 µM
same,IC50,Acetylcholinesterase,0.195 µM
CC[C@@H](CN1CCCC1=O)C(=O)NCCCCCCCNc1c2c(nc3cc(Cl)ccc13)C[C@H]1C=C(C)C[C@@H]2C1,IC50,Cholinesterase [2],0.232 µM
same,IC50,Acetylcholinesterase,0.0042 µM
same,inhibition,[3],54%
same,inhibition,[4],36%
Cc1ccc2c(c1)c1c(n2CCc2ccc(C)nc2)CCN(C)C1 [LATREPIRDINE],EC50,Mus musculus,42 mg/kg
same,IC50,[5],57 µM
same,IC50,Cholinesterase [6],7900 µM
CCN1CCc2c(c3ccccc3n2CCC(=O)N2c3ccccc3Sc3ccccc32)C1,IC50,Cholinesterase [7],0.52 µM
O=c1[nH]c(=O)c2cc[nH]c2[nH]1 [7-DEAZAXANTHINE],IC50,[8],0.7 µM
same,IC50,Beta-secretase 1,0.3 µM
